Measurements: patent publication US20050069907A1, “Methods for using double-mutant RNA polymerases with reduced discrimination between non-canonical and canonical nucleoside triphosphates” (priority 2002, published 2005)

Experiments:
Format in all cases: biochemical
poly(dI)·poly(dC) = experiment: Relative activity on poly(dI)·poly(dC)
Description: (§1) Transcription reactions: Transcription reactions were carried out in 40 mM Tris-Cl pH 8.0, 15 mM MgCl2, and 5 mM DTT or 20 mM Manganese Citrate pH 8.0, 5 mM DTT at 37° C. Template, polymerase, and NTP concentrations were as indicated in the legends to the figures and tables. Relative activity determinations were made by taking 4 μl aliquots of reactions at 5, 10, and 20 minute time points and spotting on to DE81 filter paper. Unincorporated nucleotides were separated from incorporated nucleotides by washing the filter paper with 0.5 M KH2PO4 pH 7.0 and retained radioactive nucleotide was quantitated with a Molecular Dynamics phosphorimager. To evaluate rNTP/dNTP selectivity, reactions were run with 4 rNTPs and pT75 as template and α-P^32 rNTPs or α-P^32 dNTPs were used to label the transcripts. The relative rate of incorporation of an rNTP vs. its cognate dNTP was determined from the relative percentages of labeled rNTP vs. dNTP incorporated into DE81 retainable RNA at 5, 10, and 20 minute time points. Apparent miscoding frequencies were determined similarly, though in this instance the template was a single-stranded homopolymer and the reaction contained the complementary unlabeled rNTP, and complementary α-P^32 rNTP or one of the 3 non-complementary α-P^32 rNTPs. The relative percentages of labeled complementary vs. non-complementary rNTPs incorporated at 5, 10 and 20 minute time points gave an apparent miscoding rate. The rNTP/dNTP selectivity assay was used to test the following T7 RNAP mutants for effects on substrate discrimination: D537S, D537E, S539A, R5S1S, D552S, R627S, K631S, L637A, Y639S, Y639F, Y639A, G640A, F644A, G645A, Q649S, […], H811S, H811A, D812A, D812E, D812S, D812N, D879E+ΔF882+ΔA883, D879E+A881T+ΔA883, D879E+F884+A885, D879E+F882Y, D879E+ΔA883, D879E+F882W, D879E.
DNA and RNA synthesis on homopolymeric templates: T7 RNAP will synthesize poly(rG) RNAs on poly(dC) templates (Bonner, et al., 1994; Ikeda and Richardson 1987). The activity of the W.T. and mutant polymerases were measured on poly(dI)-poly(dC) with rGTP, dGTP, dGTP+rGMP (see, Table III).
Numbers give mean and range from 3 experiments. Templates were at 0.2 mg/ml, polymerases at 10^-8 M. Labeling NTPs were α-P^32 rGTP, α-P^32 dGTP, α-P^32 rATP, α-P^32 dATP, as appropriate. rNTPs or rNMPs at 0.5 mM; dNTPs at 1 mM.

poly(dC) = experiment: Apparent miscoding on homopolymeric template poly(dC); details: for Relative rate of incorporation GTP/ATP / Relative rate of incorporation GTP/CTP / Relative rate of incorporation GTP/UTP / Relative rate of incorporation of rGTP vs non-complementary rNTPs: poly(dC); for Relative rate of incorporation GTP/ATP / Relative rate of incorporation GTP/CTP / Relative rate of incorporation GTP/UTP: Mg^2+ buffer
Description: as §1
An increase in miscoding would be reflected in an increase in the rate of incorporation of the non-complementary NTP into RNA.
Numbers are averages from 2 experiments and reflect the ratio of the percentages of labeled rNTPs incorporated into RNA in reactions in which unlabeled complementary rNTPs were in great excess (0.5 mM) to labeled complementary or non-complementary rNTPs. Templates were at 0.1 mg/ml. Polymerases were at 10^−8 M in Mg^2+ buffer and 10^−7 M in Mn^2+ buffer.
*The upper number refers to results obtained in Mg^2+ buffer, the lower number to results in Mn^2+ buffer. n.d.: G640A, Y639A, Y639S were poorly active in Mn^2+ buffer, or on poly(dT) under all conditions.

[1] = 2′-group discrimination of M635 mutants; details: wild-type or Y639F T7 RNAP background
Description: Other mutations: It is conceivable that, in the absence of a bound rNTP, a hydrogen bond forms between Y639 and some other active site side chain. The possibility of an interaction between M635 and Y639 was tested since M635 and Y639 are close and M635 approaches the ribose in our models of NTP in T7 RNAP (Huang, et al., submitted for publication). This position is methionine in the T7 RNAP class of RNAPs (McAllister, W.T., 1993), but is either tyrosine or phenylalanine in the homologous DNAPs, and in the DNAP mutants at this site (i.e., positions homologous to position 762 in E. coli DNAP I) that affect dNTP/ddNTP discrimination (Tabor. S., and Richardson, C. C., European patent application, 1994). […] Additional studies will reveal whether these M635 mutations have other effects, such as effects on discrimination at the 3′-position of the sugar, or effects on discrimination with respect to NTPs with other substituents, such as fluorine at the 2′ position of the sugar. Also, studies on similar double mutations at the homologous sites in the homologous class I DNAPs will reveal the effects of such double mutations on discrimination at the 2′- and 3′-positions of the sugar; specifically, these studies will reveal whether class I DNAPs having a phenylalanine at the position homologous to amino acid position 766 in E. coli DNAP I have reduced discrimination for rNTPs if the amino acid is methionine or tyrosine at the position homologous to amino acid position 762 in E. coli DNAP I.

pT75 = experiment: Activity with NTPs containing different 2′-substituents; parameters: unit not given here
Description: Activity was determined with pT75 as template but with one of the rNTPs replaced with a dNTP or a 2′-modified NTP. The labeling NTP was UTP (in reactions with 2′-modified CTPs or ATPs) or CTP (in reactions with 2′-modified UTPs). Y639F and Y639M represent enzymes with substitutions of the wild-type (W.T.) tyrosine at position 639 by phenyalanine (F) or methionine (M), respectively.

[2] = rGTP, mean and range from 3 experiments

Substance	Relative activity on poly(dI)·poly(dC) (poly(dI)·poly(dC); dGTP)	Relative activity on poly(dI)·poly(dC) (poly(dI)·poly(dC); dGTP + rGMP)	Relative activity on poly(dI)·poly(dC) (poly(dI)·poly(dC); [2])	Activity in Mn^2+ buffer, or on poly(dT) under all conditions (poly(dC))	Relative rate of incorporation GTP/ATP (poly(dC))	Relative rate of incorporation GTP/CTP (poly(dC))	Relative rate of incorporation GTP/UTP (poly(dC))	2′-group discrimination with respect to dNTPs and rNTPs [1]	further results
G640A: T7 RNAP mutant adjacent to Y639 that does not affect substrate discrimination [reference compound]	<5	<5	240 (200-270)	poorly active	388	508	>1320		
M635A: T7 RNAP M635 mutant								did not affect 2′-group discrimination	
M635F: T7 RNAP M635 mutant								did not affect 2′-group discrimination	
M635Y: T7 RNAP M635 mutant								did not affect 2′-group discrimination	
Y639A: poorly active non-conservative tyrosine 639 mutation of T7 RNAP	5.3 (4.8-5.5)	25 (17-30)	145 (142-151)	poorly active	>184	>184	>184		Relative rate of incorporation of rGTP vs non-complementary rNTPs (poly(dC)): 184 fold
Y639M: T7 RNAP with tyrosine at position 639 substituted by methionine									Activity (pT75; 2′-F-ATP replacing ATP): 9.7 ± .20; Activity (pT75; 2′-F-CTP replacing CTP): 47 ± .70; Activity (pT75; 2′-F-UTP replacing UTP): 23 ± .72; Activity (pT75; 2′-NH2-ATP replacing ATP): .92 ± .035; Activity (pT75; 2′-NH2-CTP replacing CTP): 21 ± .38; Activity (pT75; 2′-NH2-UTP replacing UTP): 3.6 ± .19; Activity (pT75; 2′-dATP replacing ATP): 3.2 ± .11; Activity (pT75; 2′-dCTP replacing CTP): 32 ± 1.1; Activity (pT75; 2′-dUTP replacing UTP): 11 ± .46; Activity (pT75; ATP): 51 ± 1.3; Activity (pT75; CTP): 54 ± 3.9; Activity (pT75; UTP): 50 ± 1.2
Y639S: poorly active non-conservative tyrosine 639 mutation of T7 RNAP	.6	4.4	48 (47-50)	poorly active	>50	>50	>50		Relative rate of incorporation of rGTP vs non-complementary rNTPs (poly(dC)): 50 fold
